Experimental data: ChEMBL document CHEMBL4422610, “HDAC as onco target: Reviewing the synthetic approaches with SAR study of their inhibitors” (Eur J Med Chem, 2018)

Assays:
Histone deacetylase 9 = Histone deacetylase 9 (Homo sapiens, UniProt Q9UKV0); assay: Inhibition of human HDAC9 using fluorogenic HDAC substrate
Histone deacetylase 11 = target: T1, Histone deacetylase 11 (Homo sapiens, UniProt Q96DB2); assay: Inhibition of human HDAC11 using fluorogenic HDAC substrate
T1 sequence (Q96DB2 whole entry): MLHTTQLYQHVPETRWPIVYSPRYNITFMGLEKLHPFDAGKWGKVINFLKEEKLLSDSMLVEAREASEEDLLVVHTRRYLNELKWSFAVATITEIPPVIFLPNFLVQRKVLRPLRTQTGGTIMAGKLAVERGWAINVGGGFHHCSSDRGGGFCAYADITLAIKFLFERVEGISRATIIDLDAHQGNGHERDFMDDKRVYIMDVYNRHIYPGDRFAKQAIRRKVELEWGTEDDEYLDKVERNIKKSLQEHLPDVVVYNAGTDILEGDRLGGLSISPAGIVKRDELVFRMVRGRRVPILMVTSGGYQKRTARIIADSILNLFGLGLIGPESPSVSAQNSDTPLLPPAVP

Histone deacetylase 8 = target: T2, Histone deacetylase 8 (Homo sapiens, UniProt Q9BY41); assay: Inhibition of human HDAC8 using fluorogenic HDAC substrate
T2 sequence (Q9BY41 whole entry): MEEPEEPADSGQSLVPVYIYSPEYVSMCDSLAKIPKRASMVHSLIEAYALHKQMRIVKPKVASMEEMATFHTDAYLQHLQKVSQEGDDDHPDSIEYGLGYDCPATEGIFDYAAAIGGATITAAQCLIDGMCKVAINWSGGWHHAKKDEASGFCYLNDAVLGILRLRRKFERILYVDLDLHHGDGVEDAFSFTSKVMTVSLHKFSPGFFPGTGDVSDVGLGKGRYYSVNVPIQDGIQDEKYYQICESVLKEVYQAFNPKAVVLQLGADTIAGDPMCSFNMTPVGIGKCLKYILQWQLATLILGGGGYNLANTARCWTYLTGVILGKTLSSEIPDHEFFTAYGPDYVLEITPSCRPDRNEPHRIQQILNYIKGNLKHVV

Histone deacetylase 5 = Histone deacetylase 5 (Homo sapiens, UniProt Q9UQL6); assay: Inhibition of human HDAC5 using fluorogenic HDAC substrate
Sequence of Histone deacetylase 5 (Q9UQL6 whole entry): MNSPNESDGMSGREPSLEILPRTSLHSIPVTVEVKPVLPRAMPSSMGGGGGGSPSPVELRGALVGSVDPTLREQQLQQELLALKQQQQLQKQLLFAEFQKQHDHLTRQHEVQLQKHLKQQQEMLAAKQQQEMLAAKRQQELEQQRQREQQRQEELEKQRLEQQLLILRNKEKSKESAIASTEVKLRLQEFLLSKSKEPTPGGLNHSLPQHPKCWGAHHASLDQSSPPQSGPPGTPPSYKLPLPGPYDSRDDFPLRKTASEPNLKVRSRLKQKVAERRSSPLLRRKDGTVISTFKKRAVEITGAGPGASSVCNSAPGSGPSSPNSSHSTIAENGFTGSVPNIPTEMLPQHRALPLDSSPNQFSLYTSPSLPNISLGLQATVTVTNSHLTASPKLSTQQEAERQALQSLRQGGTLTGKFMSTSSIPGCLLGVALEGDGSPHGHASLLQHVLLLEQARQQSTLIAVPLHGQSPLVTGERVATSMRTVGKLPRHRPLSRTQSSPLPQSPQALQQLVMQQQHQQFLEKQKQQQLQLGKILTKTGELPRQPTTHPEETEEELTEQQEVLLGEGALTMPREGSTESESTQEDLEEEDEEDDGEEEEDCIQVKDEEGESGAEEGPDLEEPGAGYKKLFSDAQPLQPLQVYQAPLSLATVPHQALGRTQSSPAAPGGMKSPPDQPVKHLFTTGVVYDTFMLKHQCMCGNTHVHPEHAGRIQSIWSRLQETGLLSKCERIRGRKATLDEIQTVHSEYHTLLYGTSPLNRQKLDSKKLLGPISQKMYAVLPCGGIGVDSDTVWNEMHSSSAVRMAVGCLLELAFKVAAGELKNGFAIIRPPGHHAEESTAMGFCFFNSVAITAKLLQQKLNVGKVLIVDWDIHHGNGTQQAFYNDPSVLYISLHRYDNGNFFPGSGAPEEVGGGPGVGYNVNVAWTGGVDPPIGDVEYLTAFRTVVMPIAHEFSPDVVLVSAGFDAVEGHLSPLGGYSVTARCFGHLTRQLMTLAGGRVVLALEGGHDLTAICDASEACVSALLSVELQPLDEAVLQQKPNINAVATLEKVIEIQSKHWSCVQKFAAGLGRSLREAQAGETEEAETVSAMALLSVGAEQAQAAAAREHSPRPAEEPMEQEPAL

Histone deacetylase 4 = Histone deacetylase 4 (Homo sapiens, UniProt P56524); assay: Inhibition of human HDAC4 using fluorogenic HDAC substrate
Sequence of Histone deacetylase 4 (P56524 whole entry): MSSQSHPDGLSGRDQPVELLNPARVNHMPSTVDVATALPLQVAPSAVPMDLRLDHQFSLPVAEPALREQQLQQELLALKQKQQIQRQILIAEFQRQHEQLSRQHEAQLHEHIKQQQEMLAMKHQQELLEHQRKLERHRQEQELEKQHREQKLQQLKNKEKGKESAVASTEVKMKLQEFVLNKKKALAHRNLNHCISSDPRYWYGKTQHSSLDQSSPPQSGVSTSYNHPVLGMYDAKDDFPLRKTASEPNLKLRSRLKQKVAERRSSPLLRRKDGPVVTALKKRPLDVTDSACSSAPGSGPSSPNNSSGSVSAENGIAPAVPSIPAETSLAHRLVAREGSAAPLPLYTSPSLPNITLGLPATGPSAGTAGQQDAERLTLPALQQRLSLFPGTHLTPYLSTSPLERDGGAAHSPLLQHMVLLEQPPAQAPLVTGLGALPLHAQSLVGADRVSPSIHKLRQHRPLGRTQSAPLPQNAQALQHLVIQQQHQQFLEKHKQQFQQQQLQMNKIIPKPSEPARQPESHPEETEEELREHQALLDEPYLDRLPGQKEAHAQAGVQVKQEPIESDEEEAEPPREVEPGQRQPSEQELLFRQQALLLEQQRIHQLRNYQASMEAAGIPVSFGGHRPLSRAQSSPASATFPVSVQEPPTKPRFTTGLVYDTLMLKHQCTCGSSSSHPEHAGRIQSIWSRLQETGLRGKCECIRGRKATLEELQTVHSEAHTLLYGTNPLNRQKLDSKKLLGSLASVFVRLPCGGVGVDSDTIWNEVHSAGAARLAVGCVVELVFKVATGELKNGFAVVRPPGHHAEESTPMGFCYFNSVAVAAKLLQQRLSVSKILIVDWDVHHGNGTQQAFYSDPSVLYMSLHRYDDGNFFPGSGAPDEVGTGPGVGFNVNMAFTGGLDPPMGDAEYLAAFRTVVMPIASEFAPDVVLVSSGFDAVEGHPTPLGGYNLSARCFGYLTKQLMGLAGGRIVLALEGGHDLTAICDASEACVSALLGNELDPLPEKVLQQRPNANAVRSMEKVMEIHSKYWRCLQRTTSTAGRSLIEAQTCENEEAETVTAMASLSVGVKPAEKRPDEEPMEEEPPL

Sequence of Histone deacetylase 9 (Q9UKV0 whole entry): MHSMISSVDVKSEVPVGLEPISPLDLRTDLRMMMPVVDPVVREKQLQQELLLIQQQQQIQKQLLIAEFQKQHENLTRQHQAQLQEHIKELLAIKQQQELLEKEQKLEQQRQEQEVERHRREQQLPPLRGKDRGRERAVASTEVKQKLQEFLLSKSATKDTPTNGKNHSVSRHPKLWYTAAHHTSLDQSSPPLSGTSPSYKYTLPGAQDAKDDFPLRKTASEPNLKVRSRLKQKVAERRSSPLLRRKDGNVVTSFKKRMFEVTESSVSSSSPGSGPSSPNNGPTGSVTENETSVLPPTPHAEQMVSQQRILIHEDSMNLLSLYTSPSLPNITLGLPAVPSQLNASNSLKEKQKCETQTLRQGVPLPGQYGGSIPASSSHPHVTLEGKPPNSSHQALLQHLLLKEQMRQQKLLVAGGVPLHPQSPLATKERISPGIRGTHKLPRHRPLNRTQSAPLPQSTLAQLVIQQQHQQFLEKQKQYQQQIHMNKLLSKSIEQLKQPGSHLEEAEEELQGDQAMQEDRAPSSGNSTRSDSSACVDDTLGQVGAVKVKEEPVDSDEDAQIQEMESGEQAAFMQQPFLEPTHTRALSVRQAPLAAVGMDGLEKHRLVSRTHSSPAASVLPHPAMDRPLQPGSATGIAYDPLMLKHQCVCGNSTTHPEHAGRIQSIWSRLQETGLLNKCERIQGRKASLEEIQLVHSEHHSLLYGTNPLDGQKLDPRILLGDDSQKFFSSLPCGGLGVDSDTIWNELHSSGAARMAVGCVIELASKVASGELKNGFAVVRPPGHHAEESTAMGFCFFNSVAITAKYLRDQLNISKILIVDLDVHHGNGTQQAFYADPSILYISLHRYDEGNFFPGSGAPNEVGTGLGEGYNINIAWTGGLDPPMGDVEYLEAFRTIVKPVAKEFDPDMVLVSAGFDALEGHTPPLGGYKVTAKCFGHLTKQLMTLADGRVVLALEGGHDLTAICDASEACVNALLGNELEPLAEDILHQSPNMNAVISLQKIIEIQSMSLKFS

For `O=C(NO)c1ccc(CN2c3ccccc3CC[C@@H]3CCCC[C@H]32)cc1`, the IC50 (Histone deacetylase 9) was 8.9 µM, the IC50 (Histone deacetylase 11) was 540 nM and the IC50 (Histone deacetylase 8) was 2900 nM. For the same compound, the IC50 (Histone deacetylase 5) was 12 µM and the IC50 (Histone deacetylase 4) was over 30 µM.
